Assay results taken from publication PMC4010472, “Pharmacokinetics and Efficacy of Topically Applied Nonsteroidal Anti-Inflammatory Drugs in Retinochoroidal Tissues in Rabbits” (PLoS ONE, 2014).
Entries after “also recorded” stand apart in the source; their conditions may differ. Read-outs that look alike come from different tables or passages of the source.

How the values were obtained:
in vivo [1] = details: Kbl:JW, rabbit, topical or ocular
[2] = tested on: concanavalin A-induced retinochoroidal inflammation; assay: Concanavalin A-induced intraocular inflammation, vitreous protein concentration (blood-retinal barrier breakdown); details: rabbit, 72 hours after intravitreal Con A; 50 µL of 0.1% eye drops 3 times/day for 4 days, or indomethacin 20 mg/kg s.c. once a day; vs saline, Dunnett's test
[3] = cited from earlier work
[4] = rabbit, in vivo
in vivo [5] = details: Kbl:JW, rabbit, topical or ocular; remark: listed apart in the source
retinal PGE2 = details: topical, lipopolysaccharide-injected rats ref 41; cited from earlier work
[6] = tested on: Con A-induced intraocular inflammation; design: method as in PMID 14635785; details: 0.5% nepafenac eye drops, 5 times/day regimen ref 22; cited from earlier work
human COX-2 = biological target: T1, human COX-2 (Homo sapiens, UniProt P35354); assay: COX-2 inhibitory activity, human recombinant COX-2, PGE2 EIA; assay type: biochemical; details: for IC50: human recombinant COX-2, 0.3 µM arachidonic acid, PGE2 EIA, read-out: IC50 COX-2, [95% Confidence interval]
T1 construct: purchased Sigma-Aldrich; host or cells: baculovirus-infected Sf21 cells
T1 sequence (P35354 18-604): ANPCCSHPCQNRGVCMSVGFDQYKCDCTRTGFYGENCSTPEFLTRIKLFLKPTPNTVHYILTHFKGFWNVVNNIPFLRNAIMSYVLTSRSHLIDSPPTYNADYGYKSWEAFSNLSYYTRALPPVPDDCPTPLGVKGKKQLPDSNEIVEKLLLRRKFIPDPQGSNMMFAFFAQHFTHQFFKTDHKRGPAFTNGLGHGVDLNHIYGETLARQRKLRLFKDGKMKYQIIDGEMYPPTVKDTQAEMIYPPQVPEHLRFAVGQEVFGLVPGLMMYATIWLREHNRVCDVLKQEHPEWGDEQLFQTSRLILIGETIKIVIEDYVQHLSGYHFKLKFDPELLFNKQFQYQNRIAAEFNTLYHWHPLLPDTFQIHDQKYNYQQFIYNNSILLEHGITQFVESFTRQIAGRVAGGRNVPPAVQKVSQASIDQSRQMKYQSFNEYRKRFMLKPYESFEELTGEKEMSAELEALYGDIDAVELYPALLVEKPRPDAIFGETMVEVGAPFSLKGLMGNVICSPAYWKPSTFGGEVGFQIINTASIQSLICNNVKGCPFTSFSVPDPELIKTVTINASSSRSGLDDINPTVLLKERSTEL
Experimental: (§1) The endogenous human COX-1 inhibitory activity was assayed by a published method with a slight modification, using venous blood of healthy volunteers with a written informed consent (obtained from Taipei Blood Center, Taipei, Taiwan). Test samples (0.3 to 1000 nM) and vehicle (1% dimethyl sulfoxide in the final assay) were pre-incubated with washed human platelets (5×10^7/mL) in modified buffer (Hanks' balanced salt solution with 15 mM HEPES, pH 7.4) for 15 minutes at 37°C. Arachidonic acid (100 µM, Cayman Chemical Co., Ann Arbor, MI) was added to initiate the reaction, and samples were incubated for an additional 15 minutes at 37°C. At the end of the incubation period, the reaction was terminated by the addition of 1 N HCl. Aliquots were then removed to determine the amount of PGE2 produced with the EIA kit. The amount of PGE2 was spectrophotometrically measured in the range of 50–6400 pg/mL at 450 nm according to the instructions of the kit using a competitive microtiter-based immunoassay method. Tests were performed with 7 concentrations of each drug to construct a dose-response curve and to determine the concentration causing a half-maximal inhibition (IC50) relative to the control values. Each series of concentrations was run in triplicate for each drug. […] The equation for a 4-parameter logistic fitting was, [drawing 1]
where a is the maximum value of the sigmoid curve; b is the Hill slope; c is (a + d)/2 (or IC50); and d is the lowest value of the sigmoid curve.
Human recombinant COX-2 isolated from baculovirus-infected Sf21 cells (Sigma-Aldrich) was used for this assay. Test articles (0.1–1000 nM) and vehicle (1% dimethyl sulfoxide in the final assay) were pre-incubated with buffer (100 mM Tris-HCl, pH 7.7) containing 0.11 U COX-2, 1 mM glutathione, 1 µM hematin, and 0.5 mM phenol for 15 minutes at 37°C. Arachidonic acid (0.3 µM) was added to initiate the reaction, and samples were incubated for an additional 5 minutes at 37°C. At the end of the incubation period, the reaction was terminated by adding 1 N HCl. The amount of PGE2 produced was determined with the EIA kit, and the IC50 of each drug for COX-2 was obtained as described.

[7] = Simulated repeated-dose pharmacokinetics in retinochoroidal tissue compared with IC50 of COX-2; design: species or system rabbit
human COX-1 = human COX-1 (Homo sapiens, UniProt P23219); assay: biochemical
human COX-1, sequence (P23219 24-599): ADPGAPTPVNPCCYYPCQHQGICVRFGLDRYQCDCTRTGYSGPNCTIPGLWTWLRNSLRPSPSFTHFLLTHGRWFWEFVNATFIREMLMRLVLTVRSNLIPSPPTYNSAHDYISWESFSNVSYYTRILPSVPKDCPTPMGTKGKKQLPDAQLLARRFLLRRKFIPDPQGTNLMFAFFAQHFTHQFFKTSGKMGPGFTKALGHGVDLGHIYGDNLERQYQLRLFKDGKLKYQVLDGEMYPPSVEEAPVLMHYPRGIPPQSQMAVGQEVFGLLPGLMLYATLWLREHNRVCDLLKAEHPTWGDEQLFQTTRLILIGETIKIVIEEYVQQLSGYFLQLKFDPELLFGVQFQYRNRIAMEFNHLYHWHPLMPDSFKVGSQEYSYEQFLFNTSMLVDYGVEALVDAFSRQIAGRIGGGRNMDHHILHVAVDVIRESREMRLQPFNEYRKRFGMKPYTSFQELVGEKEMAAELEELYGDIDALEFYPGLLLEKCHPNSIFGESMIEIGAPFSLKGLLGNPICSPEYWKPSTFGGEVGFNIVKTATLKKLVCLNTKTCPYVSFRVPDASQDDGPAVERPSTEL
Experimental: as §1, with “1] […]” for “1]”

COX-2 = details: cited from earlier work
[8] = repeated dosing simulated from single dose; diclofenac and amfenac (nepafenac) three/day at 8 hr interval, bromfenac two/day at 12 hr interval
COX-1 = details: cited from earlier work
[9] = 21 day-once daily instillation of 0.1% 14C-bromfenac; 7.2 ng/mL × 80.5% ref 35; cited from earlier work
[10] = humans, adjunctive use of topical bromfenac ref 18; cited from earlier work
[11] = tested on: laser-induced choroidal neovascularization; design: method as in PMID 21709668; details: topical, rats ref 17; cited from earlier work
[12] = Ocular distribution after single topical instillation: retinochoroidal tissue (LC-MS/MS, non-compartmental PK); details: Kbl:JW, rabbit, in vivo, topical or ocular, 30 µL of 0.1% eye drops
retinal vascular leakage = details: topical, lipopolysaccharide-injected rats ref 41; cited from earlier work
[13] = sheep-derived enzymes or combination of sheep and recombinant human enzymes ref 23
[14] = sheep-derived enzymes or combination of sheep and recombinant human enzymes ref 24

Cmax (in vivo [1]) [ng/g] | AUC0–8 [4] [ng·h/g] | AUC(0-t) (in vivo [5]; in vivo) [ng·h/mL] | Cmax (in vivo [5]; in vivo) [ng/mL] | SMILES | protein concentration in the vitreous body [2] | retinal PGE2 levels (retinal PGE2) | IC50 (human COX-2) [nM] | IC50 (COX-2; [13]) [nM] | IC50 (COX-1; [13]) [nM] | also measured
38.2 ± 18.1 | 119 ± 27 | 972 ± 44 | 300 ± 110 | O=C(O)Cc1ccccc1Nc1c(Cl)cccc1Cl [Diclofenac, diclofenac] | decrease was not significant | – | – | – | – | half-life (in vivo [1]): 1.89 h; k el (in vivo [1]): 0.000102 s⁻¹; hydrophobicity (Log P) ([3]; ref 32): 4.31; half-life (in vivo [5]; in vivo): 1.94 h; k el (in vivo [5]; in vivo): 9.94e-05 s⁻¹
– | – | – | – | NC(=O)Cc1cccc(C(=O)c2ccccc2)c1N [Nepafenac, nepafenac] | decrease was not significant | significantly reduced | – | – | – | inhibition of the breakdown of the blood-retinal barrier [6]: significantly inhibit; Tmax (in vivo [5]; aqueous humor, 30 µL of 0.1% eye drops): 0.5 h
12.5 ± 7.2 | 41.9 ± 3.4 | 131 ± 11 | 25.9 ± 7.4 | Nc1c(CC(=O)O)cccc1C(=O)c1ccccc1 [Amfenac, amfenac] | – | – | 20.4 | 1.77 | 138 | Ratio of IC50: IC50 for COX-2/IC50 for COX-1 (human COX-2; human COX-2 to COX-1): 1.3; simulated concentration in retinochoroidal tissue relative to IC50 of COX-2 ([7]; repeated dosing simulated from single dose, diclofenac and amfenac (nepafenac) three/day at 8 hr interval, bromfenac two/day at 12 hr interval): lower than the corresponding IC50 values at the troughs; also recorded: less than the IC50 of COX-2 at the trough level; IC50 (human COX-1): 15.3 nM; IC50 (COX-2; [14]): 150 nM; simulated concentration in aqueous humor relative to IC50 of COX-2 [8]: almost always higher than the IC50 of COX-2 although it was slightly less than the IC50 at the trough level; IC50 (COX-1; [14]): 250 nM
– | – | – | – | COc1ccc2c(c1)c(CC(=O)O)c(C)n2C(=O)c1ccc(Cl)cc1 [indomethacin] | significantly reduced | significantly reduced | – | – | – | retinal vascular leakage (retinal vascular leakage): able to prevent

SMILES | Cmax (in vivo [1]) [ng/g] | AUC0–8 [4] [ng·h/g] | AUC(0-t) (in vivo [5]; in vivo) [ng·h/mL] | Cmax (in vivo [5]; in vivo) [ng/mL] | protein concentration in the vitreous body [2] | retinal PGE2 levels (retinal PGE2) | IC50 (human COX-2) [nM] | IC50 (COX-2; [13]) [nM] | IC50 (COX-1; [13]) [nM] | also measured
Nc1c(CC(=O)O)cccc1C(=O)c1ccc(Br)cc1 [Bromfenac, 2-amino-3-(4-bromobenzoyl) phenylacetic acid] | 15.8 ± 7.2 | […] | […] | […] | […] | […] | 7.45 | […] | […] | inhibitory activity on COX-2, times more potent than amfenac (human COX-2; bromfenac vs amfenac): […]; inhibitory activity on COX-2, times more potent than diclofenac (human COX-2; bromfenac vs diclofenac): […]; simulated concentration in retinochoroidal tissues at 8 hours after the last instillation ([7]; simulation model, 21 day-once daily instillation (data not shown)): […]; concentration of bromfenac in retinochoroidal tissues at 8 hours after the last instillation [9]: […]; frequency of intravitreous ranibizumab [10]: could reduce; hydrophobicity (Log P) ([3]; ref 27): […]; hydrophobicity (Log P) ([3]; ref 33): 3.22; laser-induced choroidal neovascularization [11]: inhibited; half-life (in vivo [5]; in vivo, 30 µL of 0.1% eye drops): […]; half-life [12]: 4.69 h
